A short description of data set [1]: in vivo. The note with it: female, C3HeB/FeJ, mouse, plasma, po, 150 mg/kg.
The conditions of data set [2]: C3HeB/FeJ, mouse, in vivo.
Data set [3] is classed as in vivo, human. Conditions: for CmaxPZA: Korean subjects, PZA 22–30 mg/kg.
The conditions of data set [4]: female, rabbit, in vivo, po, 250 mg/kg.
Data set [5] can be described thus: in vivo. The note with it: female, New Zealand white (NZW), rabbit, po, 250 mg/kg.
Data set [6] can be described thus: in vivo. Conditions: C3HeB/FeJ, mouse, po.
The nature of data set [7]: Plasma pharmacokinetics of oral PZA or POA in naïve New Zealand white rabbits. The format is in vivo, rabbit.
The conditions of data set [8]: cited from earlier work.
The nature of data set [9]: in vivo. The note with it: female, CD-1, mouse, plasma, po, 150 mg/kg.
Assay in data set [10]: not given
The source holds these as a separate data set.

A short description of data set [11]: Plasma pharmacokinetics of PZA and POA metabolite in uninfected marmosets.
Assay in data set [12]: not given
The source holds these as a separate data set.

Assay in data set [13]: not given
The source holds these as a separate data set.

Data set [14] deals with M. tuberculosis strains H37Rv and H37Ra. Briefly: In vitro growth inhibitory assay in liquid medium. The format is cell-based, Mycobacterium tuberculosis.
Data set [15] is described as follows: in vivo. Conditions: BALB/c, mouse, po, 150 mg/kg.
Data set [16] is described as follows: Plasma pharmacokinetics of oral PZA or POA in naïve guinea pigs.
In data set [17] the test system is xanthine oxidase. Briefly: Effect of allopurinol predosing on PZA and POA exposure in NZW rabbits. It is filed as in vivo, rabbit. The note with it: for AUC: female, New Zealand white, rabbit, plasma, 40 mg/kg.
Data set [18] concerns M. tuberculosis H37Rv or H37Ra. The data set can be described thus: Susceptibility on solid media. It is filed as cell-based, Mycobacterium tuberculosis.
A short description of data set [19]: Oral pharmacokinetics of POA in preclinical species. The format is in vivo. The note with it: single oral POA dose; mice, guinea pigs and rabbits.
A short description of data set [20]: Solubility of POA in aqueous media. The format is physicochemical.
In data set [21] the target is T1, xanthine oxidase (Mus musculus, UniProt Q00519). Conditions: female, CD-1, mouse, in vivo, po, 40 mg/kg.
T1 sequence (Q00519 whole entry): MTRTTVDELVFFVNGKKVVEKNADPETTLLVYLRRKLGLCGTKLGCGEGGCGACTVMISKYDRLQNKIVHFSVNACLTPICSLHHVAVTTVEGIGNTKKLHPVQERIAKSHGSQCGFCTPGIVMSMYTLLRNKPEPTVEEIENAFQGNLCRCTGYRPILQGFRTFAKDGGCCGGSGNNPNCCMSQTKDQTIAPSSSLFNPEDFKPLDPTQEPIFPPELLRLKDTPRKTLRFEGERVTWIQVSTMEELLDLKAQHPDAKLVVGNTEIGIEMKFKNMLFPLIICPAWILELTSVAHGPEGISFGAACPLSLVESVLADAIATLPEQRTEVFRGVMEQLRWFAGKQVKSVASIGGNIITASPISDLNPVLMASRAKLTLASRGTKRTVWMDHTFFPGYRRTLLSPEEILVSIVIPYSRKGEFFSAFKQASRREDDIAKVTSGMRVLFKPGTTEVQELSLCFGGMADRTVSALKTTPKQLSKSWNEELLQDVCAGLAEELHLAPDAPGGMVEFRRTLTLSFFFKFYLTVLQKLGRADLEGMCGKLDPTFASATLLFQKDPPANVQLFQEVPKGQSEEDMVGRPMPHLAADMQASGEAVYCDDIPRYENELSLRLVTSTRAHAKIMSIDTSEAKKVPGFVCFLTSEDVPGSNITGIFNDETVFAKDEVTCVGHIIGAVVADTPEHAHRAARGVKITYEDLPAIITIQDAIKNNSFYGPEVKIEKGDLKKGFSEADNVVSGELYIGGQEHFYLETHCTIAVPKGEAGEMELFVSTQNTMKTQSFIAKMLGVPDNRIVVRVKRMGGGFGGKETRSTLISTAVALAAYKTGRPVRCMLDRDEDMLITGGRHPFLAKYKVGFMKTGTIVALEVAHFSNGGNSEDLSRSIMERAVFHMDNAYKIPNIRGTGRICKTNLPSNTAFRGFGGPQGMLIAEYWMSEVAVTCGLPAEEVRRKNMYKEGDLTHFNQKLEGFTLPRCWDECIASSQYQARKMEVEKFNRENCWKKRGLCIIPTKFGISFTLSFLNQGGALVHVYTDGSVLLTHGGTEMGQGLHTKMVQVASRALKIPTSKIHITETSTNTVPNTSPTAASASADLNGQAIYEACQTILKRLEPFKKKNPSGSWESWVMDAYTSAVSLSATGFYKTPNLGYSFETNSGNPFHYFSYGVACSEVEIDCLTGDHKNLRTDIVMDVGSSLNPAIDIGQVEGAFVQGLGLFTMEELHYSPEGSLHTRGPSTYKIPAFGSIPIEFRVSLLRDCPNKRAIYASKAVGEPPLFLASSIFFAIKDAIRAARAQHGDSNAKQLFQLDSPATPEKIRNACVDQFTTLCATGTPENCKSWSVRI
The subject of data set [22] is acute intravenous infection. Conditions: administered at 2 to 5% in food; cited from earlier work.
The target of data set [23] is T1, xanthine oxidase. The data set can be described thus: Effect of allopurinol predosing on PZA and POA exposure in CD-1 mice. The note with it: allopurinol pretreatment either 4 doses of 20 mg/kg or 1 dose of 40 mg/kg.
[24] abbreviates: both, human, plasma, oral, 1500 mg.
[25] abbreviates: both, human, plasma, po, 1500 mg.
The mark [26] stands for this setting: female, BALB/c, mouse, in vivo, po, 150 mg/kg.
Where [27] appears, read: female, New Zealand white, rabbit, plasma, po.
[28] abbreviates: female, Hartley, guinea pig, in vivo, po, 300 mg/kg.
Setting [29] is: over a 24 h period, 14 TB patients, 1500 mg PZA, from PK model.

This is an account of results in article PMC4467917 (ACS infectious diseases, 2015).

Read-outs that look alike come from different tables or passages of the source.

Broadly, the CL/F is the apparent clearance, not corrected for the fraction that reaches the circulation. Broadly, the Vd/F is the apparent distribution volume after extravascular dosing.

Take `NC(=O)c1cnccn1` [PZA, pyrazinamide]: the AUC in the data set “in vivo [1]” is 580 µg·h/mL; in data set [3] (both, human, plasma, po) it was 617 to 738 µg·h/mL; in the data set “in vivo [5]” it was 296 µg·h/mL; in “in vivo [6]” (150 mg/kg), 425 µg·h/mL; in data set [7] (female, New Zealand white, rabbit, plasma, po, 300 mg/kg), 457 µg·h/mL; in the data set “in vivo [9]” it was 210 µg·h/mL. The AUC worked out at 743 µg·h/mL in [11] (marmoset (Callithrix jacchus), in vivo, po, 125 mg/kg); 388 µg·h/mL in the data set “in vivo [15]”; 342 µg·h/mL in data set [16] (setting [28]). The apparent clearance CL/F in “in vivo [1]” was 10.3 mL/min/kg; in data set [3] (setting [25]) it was 0.467 mL/min/kg; in “in vivo [6]” it was 6.33 mL/min/kg; in data set [7] (setting [27]), 12.5 mL/min/kg; in the data set “in vivo [9]”, 12.5 mL/min/kg; in data set [11] (monkey, in vivo, po, 125 mg/kg), 3.83 mL/min/kg. Besides, the CL/F in the data set “in vivo [15]” (female) was 7.83 mL/min/kg; in data set [16] (setting [28]), 12.5 mL/min/kg. Besides, the Vd/F in “in vivo [1]” was 1.02 L/kg; in data set [3] (setting [25]) it was 0.49 L/kg; in “in vivo [6]”, 1.85 L/kg; in data set [7] (setting [27]) it was 3.72 L/kg; in “in vivo [9]”, 1.28 L/kg; in data set [11] (monkey, in vivo, po, 125 mg/kg), 1.1 L/kg. For the same compound, the results for the Vd/F (in the data set “in vivo [15]” (female); in data set [16] (setting [28])) were 0.78 L/kg and 2.54 L/kg, respectively. Moreover, the k el in “in vivo [1]” was 0.000169 s⁻¹; in data set [3] (setting [24]), 1.58e-05 s⁻¹; in [7] (setting [27]), 5.56e-05 s⁻¹; in “in vivo [9]”, 0.000161 s⁻¹; in data set [11] (monkey, in vivo, po, 125 mg/kg) it was 5.83e-05 s⁻¹; in the data set “in vivo [15]” (female), 0.000167 s⁻¹. The compound further had a k el in [16] (setting [28]) of 8.06e-05 s⁻¹. For the same compound, the “human-equivalent PZA dose” value in data set [2] is on record as 160 mg/kg; the “human-equivalent PZA dose” value (BALB/c, mouse, in vivo) was 175 mg/kg; the “human-equivalent PZA dose” value in data set [7] (naïve rabbits, calculated to achieve a target AUC of 450 mg·h/L) was 300 mg/kg; the “human-equivalent PZA dose” value in data set [11] (naïve marmosets, calculated to achieve a target AUC of 450 mg·h/L) was 100 mg/kg; the “human-equivalent PZA dose” value in data set [16] (naïve guinea pigs, calculated to achieve a target AUC of 450 mg·h/L) was 400 mg/kg. In addition, the “ka, absorption rate constant” value in [2] is 220 (1) h^−1; the “ka, absorption rate constant” value in [3] (TB patients, PK model typical value (standard error)) is recorded as 0.72 (18) h^−1; the “ka, absorption rate constant” value (BALB/c mice, PK model typical value (standard error)) is listed as 18 (8) h^−1; the “ka, absorption rate constant” value in [7] (rabbits, PK model typical value (standard error)) is listed as 4.8 (2) h^−1; the “ka, absorption rate constant” value in [11] (marmosets, PK model typical value (standard error)) is given as 0.81 (7) h^−1; the “ka, absorption rate constant” value in data set [12] (CD1 mice, PK model typical value (standard error)) is on record as 15 (11) h^−1. The “ka, absorption rate constant” value in [13] (C3HeB/FeJ mice, PK model typical value (standard error)) is on record as 4.47 (21) h^−1; in data set [16] (guinea pigs, PK model typical value (standard error NA)) it was 7.7 (NA) h^−1. Also, the CmaxPZA in data set [2] (po, 150 mg/kg) was 89 (20) µg/mL; the CmaxPZA in data set [3] (single dose) is on record as 43 µg/mL; the CmaxPZA in data set [3] (steady state) is on record as 59 µg/mL; the CmaxPZA in [4] (New Zealand white (NZW)) was 90 (35) µg/mL; the CmaxPZA under setting [26] is reported as 163 (38) µg/mL; the CmaxPZA in data set [7] (naïve rabbits, single oral PZA dose 300 mg/kg, average (SD)) was 82 (17) µg/mL. The CmaxPZA in [11] (naïve marmosets, single oral PZA dose 125 mg/kg, average (SD)) is 80 (47) µg/mL; in data set [12] (naïve CD1 mice, single oral PZA dose 150 mg/kg, average (SD)), 109 (11) µg/mL; in [13] (naïve C3HeB/FeJ mice, single oral PZA dose 150 mg/kg, average (SD)) it was 190 (24) µg/mL; in [16] (naïve guinea pigs, single oral PZA dose 300 mg/kg, average (SD)), 179 (100) µg/mL. The same compound had a clearance in data set [3] (setting [24]) of 28.3 mL/min. Further, in [8] (1 to 2 h postdose), the ““normal” peak plasma concentrations” value was 20 to 60 µg/mL. Moreover, the “mean AUC” value in [8] (TB patients receiving a standard daily dose of 1500 mg PZA) is 380 to 625 µg·h/mL. Further, in [10], the “concentrations at 24 h post PZA dosing” value was “below the limit of quantification”. Further, in [14] (across the pH range), the “susceptibility of H37Rv compared with H37Ra” value is “less susceptible to PZA than H37Ra”.
`Oc1ncnc2[nH]ncc12` [allopurinol]: the AUC in the data set on xanthine oxidase [17] is 8 µg·h/mL.
`O=C(O)c1cnccn1` [POA, pyrazinoic acid]: the “CLm/Fm, oral clearance of the POA metabolite” value in data set [2] (po) is on record as 2.18 (6) L/h/kg. In addition, in [2] (po), the “Vm/Fm, oral volume of distribution of the POA metabolite” value is reported as 0.47 (13) L/kg. Also, the “AUCPOA met (POA metabolite derived from dosing of PZA)” value (“AUCPOA met” below) in data set [2] (po, 150 mg/kg) is recorded as 76 (16) µg·h/ml; the “AUCPOA met” value in [4] (New Zealand white (NZW)) is reported as 504 (139) µg·h/ml; the “AUCPOA met” value under setting [26] was 131 (13) µg·h/ml. Besides, the AUCPOA/AUCPZA ratio in data set [2] (po, 150 mg/kg) is listed as 0.18 (0.02); the AUCPOA/AUCPZA ratio in data set [4] (New Zealand white) is 1.70 (0.21); the AUCPOA/AUCPZA ratio under setting [26] is 0.38 (0.02). The CmaxPOA met in data set [2] (po, 150 mg/kg) is 16(5) µg/mL; the CmaxPOA met in data set [4] (New Zealand white (NZW)) was 111 (27) µg/mL; the CmaxPOA met under setting [26] is given as 43 (10) µg/mL. In [3] (active TB patients), the “POA/PZA exposure ratio in plasma” value is reported as “approximately 0.2”. Besides, in data set [3] (setting [24]), the clearance is 31.7 mL/min. Further, the “POA/PZA exposure ratio (range)” value in data set [3] (setting [29]) is given as 17–32%. Also, the “median POA/PZA exposure ratio” value in data set [3] (setting [29]) came to 19%. Further, in the data set on xanthine oxidase [17] (rabbits, allopurinol 3 doses of 40 mg/kg followed by oral PZA 150 mg/kg), the “effect of allopurinol predosing on POA exposure” value was “no effect”. Moreover, the “potency relative to PZA on agar plates” value in data set [18] is recorded as “twice as potent as PZA”. In addition, the oral bioavailability result in data set [19] is recorded as “orally bioavailable”. Besides, the CmaxPOA (naïve BalbC mice, single oral POA dose 150 mg/kg, average (SD)) is listed as 155(33) µg/mL; the CmaxPOA in [7] (naïve rabbits, single oral POA dose 200 mg/kg, average (SD)) is on record as 244 (51) µg/mL; the CmaxPOA in [12] (naïve CD1 mice, single oral POA dose 150 mg/kg, average (SD)) is listed as 102 (32) µg/mL; the CmaxPOA in data set [16] (naïve guinea pigs, single oral POA dose 300 mg/kg, average (SD)) is 165 (74) µg/mL. The “solubility in aqueous media” value in [20] is “poor solubility”. Moreover, the AUC in data set [7] (female, New Zealand white, rabbit, plasma, po, 200 mg/kg) was found to be 2010 µg·h/mL; in “in vivo [9]”, 136 µg·h/mL; in the data set “in vivo [15]” (female), 287 µg·h/mL; in data set [16] (setting [28]) it was 449 µg·h/mL. The “fold increase in POA exposure” value on xanthine oxidase [21] came to 12 fold. For the same compound, the “efficacy in a mouse model of acute intravenous infection” value in data set [22] is recorded as “lack of POA efficacy”. In [10], the “concentrations at 24 h post PZA dosing” value is reported as “below the limit of quantification”. Also, the tissue-to-plasma ratios in data set [10] (female, New Zealand White, rabbit, in vivo) is 0.2 and 0.5. Moreover, in data set [14] (pH 5.5, 5.8 and 6.5, H37Ra and H37Rv), the “potency relative to PZA in liquid medium” value is on record as “consistently more potent than PZA”. In addition, the “fold more potent than PZA in vitro” value in [14] (various pH and inocula) was 2- to 4 fold.
Regarding `O=C(O)c1cnc(O)cn1` [5-hydroxy-POA, 5-hydroxypyrazinoate], the “change in 5-hydroxy-POA exposure” value at xanthine oxidase [23] is “concomitant decrease”.
Consider `O=c1[nH]c(=O)c2c[nH]nc2[nH]1` [oxypurinol], for which the AUC in the data set with xanthine oxidase [17] amounted to 124 µg·h/mL.
